How the values were obtained:
[1] = test system: cancer cell lines, DetermaIO classes; assay: Association of PRISM compound sensitivity with DetermaIO (DTIO) cell line classes; type: cell-based
[2] = test system: cancer cell lines classified IM, MSL, M; assay: PRISM screen compound sensitivity correlated with IM, MSL and M subtype of cell lines (101 gene signature); type: cell-based
[3] = correlation of PRISM compound sensitivity with DTIO (DetermaIO); test cell set (188 cell lines)
[4] = correlation of PRISM compound sensitivity with DTIO (DetermaIO); training cell set (371 cell lines)
[5] = correlation of PRISM compound sensitivity with IM subtype correlation; test cell set (188 cell lines)
[6] = correlation of PRISM compound sensitivity with M subtype correlation; test cell set (188 cell lines)
[7] = correlation of PRISM compound sensitivity with MSL subtype correlation; test cell set (188 cell lines)
[8] = correlation of PRISM compound sensitivity with DTIO; test cell set
[9] = correlation of PRISM compound sensitivity with DTIO; training cell set
[10] = subtype (IM, MSL or M) with which compound sensitivity is negatively correlated; training cell set (371 cell lines), 101 gene signature
[11] = correlation of PRISM compound sensitivity with IM subtype correlation; test cell set
[12] = correlation of PRISM compound sensitivity with M subtype correlation; test cell set
[13] = correlation of PRISM compound sensitivity with MSL subtype correlation; test cell set
[14] = correlation of compound sensitivity with DetermaIO (DTIO), test set
[15] = correlation of compound sensitivity with DetermaIO (DTIO), training set
[16] = correlation of compound sensitivity with DTIO; test set
[17] = correlation of compound sensitivity with DTIO; training set
[18] = subtype (IM, MSL or M) assigned to the compound by negative correlation of PRISM sensitivity with subtype; training cell set (371 cell lines), 101 gene signature
[19] = subtype (IM, MSL or M) with which PRISM compound sensitivity is negatively correlated; training cell set, 101 gene signature
[20] = correlation of compound sensitivity with DetermaIO (DTIO); test set
[21] = correlation of compound sensitivity with DetermaIO (DTIO); training set
[22] = correlation of PRISM compound sensitivity with DTIO; test cell set (188 cell lines)
[23] = correlation of PRISM compound sensitivity with DTIO; training cell set (371 cell lines)

Compound | DTIO Corr test [1, 3] | DTIO Corr train [1, 4] | IM Corr test [2, 5] | M Corr test [2, 6] | MSL Corr test [2, 7] | DTIO Corr test [1, 8] | DTIO Corr train [1, 9] | IM Corr test [2, 11] | M Corr test [2, 12] | MSL Corr test [2, 13] | other results
OCCn1cc(-c2cnc3nnn(Cc4ccc5ncccc5c4)c3n2)cn1 [PF-04217903] | −0.00139 | −0.1163 | −0.04418 | 0.07402 | 0.07771 |  |  |  |  |  | 
C[C@H]1Oc2cc(cnc2N)-c2c(nn(C)c2C#N)CN(C)C(=O)c2ccc(F)cc21 [PF-06463922] |  |  | −0.1219 | −0.02078 | −0.05668 | −0.00728 | −0.07689 |  |  |  | TNBCType train [2, 10]: MSL
Cc1ccc([N+](=O)[O-])cc1S(=O)(=O)N(C)/N=C/c1cnc2ccc(Br)cn12 [PIK-75] |  |  |  |  |  | −0.1696 | −0.1178 | −0.1541 | 0.127 | 0.07706 | 
Cc1ccccc1-n1c(Cn2ncc3c(N)ncnc32)nc2cccc(C)c2c1=O [PIK-293] |  |  |  |  |  | 0.02467 | −0.1397 | −0.06338 | 0.066 | 0.00947 | 
Nc1ncnc2c1c(-c1cnc3[nH]ccc3c1)nn2C1CCCC1 [PP-121] | −0.08787 | −0.1218 | −0.08606 | 0.07821 | 0.02379 |  |  |  |  |  | 
N#CSc1cc(SC#N)c(N)nc1N [PR-619] |  |  |  |  |  | 0.05674 | 0.0993 | 0.1495 | −0.2203 | −0.1223 | DTIO Corr test [1, 14]: 0.05674; DTIO Corr train [1, 15]: 0.0993
O=C(NCc1cccc(O)c1)Nc1nc(-c2ccncc2)cs1 [RKI-1447] |  |  | 0.09379 | −0.1921 | −0.2082 | 0.08122 | 0.04633 |  |  |  | DTIO Corr test [1, 16]: 0.08122; DTIO Corr train [1, 17]: 0.04633; DTIO Corr test [1, 14]: 0.08122; DTIO Corr train [1, 15]: 0.04633; TNBCType train [2, 10]: MSL; TNBCType test ([2]; subtype (IM, MSL, M) with which compound sensitivity correlates, test set): MSL; TNBCType train ([2]; subtype (IM, MSL, M) with which compound sensitivity correlates, training set): MSL; TNBCType test ([2]; subtype (IM, MSL, M) with which compound sensitivity correlates; test set): MSL; TNBCType train ([2]; subtype (IM, MSL, M) with which compound sensitivity correlates; training set): MSL
O=[N+]([O-])c1cc(Cl)ccc1S(=O)(=O)N1CCN(Cc2ccccc2)CC1 [RN-1747] |  |  |  |  |  | −0.09773 | −0.1839 | −0.1441 | 0.1428 | 0.1269 | 
CC(C)c1cc(-c2ccc(F)c3ccccc23)nc(N)n1 [RS-127445] | 0.0427 | 0.05431 | 0.05394 | −0.1296 | −0.05973 |  |  |  |  |  | TNBCType train [2, 18]: MSL
O=c1[nH]ccc2cc(OC3CCNCC3)ccc12 [SAR407899] | −0.00558 | 0.07673 | 0.003595 | −0.1052 | −0.2277 |  |  |  |  |  | TNBCType train [2, 18]: MSL
COC(=O)[C@H](NC(=O)c1cc(-c2ccccc2)nc2ccccc12)c1ccccc1 [SB-218795] | −0.06114 | −0.1377 | −0.01019 | 0.01779 | −0.1047 |  |  |  |  |  | 
Cc1cccc(-c2[nH]c(C(C)(C)C)nc2-c2ccc3c(c2)OCO3)n1 [SB-505124] |  |  |  |  |  | 0.1683 | 0.2562 | 0.2475 | −0.1987 | −0.01627 | DTIO Corr test [1, 14]: 0.1683; DTIO Corr train [1, 15]: 0.2562
COc1ccc(S(=O)(=O)N2CCCN(S(=O)(=O)c3ccc(OC)c(OC)c3)CC2)cc1OC [SB-756050] |  |  |  |  |  | −0.06711 | −0.07957 | −0.03347 | −0.03952 | 0.01577 | 
C=C(C)CN1CC[C@]23c4c5ccc(O)c4O[C@H]2c2[nH]c4ccccc4c2C[C@@]3(O)C1C5.Cl.O [SDM25N] |  |  | −0.1682 | 0.08807 | −0.06407 | −0.165 | −0.12 |  |  |  | 
COc1cc2ncnc(Sc3nnc(C)s3)c2cc1OC [SKLB1002] |  |  |  |  |  | 0.03788 | 0.02384 | 0.0147 | −0.00342 | −0.05424 | TNBCType train [2, 19]: MSL
Cl.NC1CCN(c2cccc(Cl)n2)CC1 [SR-57227A] |  |  | −0.02879 | −0.08168 | −0.00449 | 0.01635 | −0.1048 |  |  |  | 
Cc1nc(-c2cccnc2)sc1C(=O)Nc1ccccc1-c1cn2c(CN3CCOCC3)csc2n1 [SRT2104] |  |  |  |  |  | −0.05596 | −0.07665 | −0.05657 | 0.06965 | −0.08685 | TNBCType train [2, 19]: MSL
C[C@H](C[C@H](N)C(=O)O)C(=O)O [SYM-2081] | −0.1311 | −0.0674 | −0.08842 | 0.01603 | 0.05746 |  |  |  |  |  | 
CC(C)(O)CC(=O)NCCn1ccc2ncnc(Nc3ccc(Oc4cccc(C(F)(F)F)c4)c(Cl)c3)c21 [TAK-285] | −0.06872 | −0.07158 | −0.1598 | 0.2221 | 0.1785 |  |  |  |  |  | DTIO Corr test [1, 16]: −0.06872; DTIO Corr train [1, 17]: −0.07158
N#Cc1c(Oc2ccc(F)c(NC(=O)Cc3cccc(C(F)(F)F)c3)c2)ccc2nc(NC(=O)C3CC3)sc12 [TAK-632] |  |  |  |  |  | 0.2089 | 0.08489 | 0.3042 | −0.2709 | 0.04709 | DTIO Corr test [1, 14]: 0.2089; DTIO Corr train [1, 15]: 0.08489; DTIO Corr test [1, 20]: 0.2089; DTIO Corr train [1, 21]: 0.08489
Cc1cc(OCCCS(C)(=O)=O)cc(C)c1-c1cccc(COc2ccc3c(c2)OC[C@H]3CC(=O)O)c1 [TAK-875] | −0.03291 | 0.03182 | 0.00946 | −0.00346 | −0.00217 |  |  |  |  |  | TNBCType train [2, 18]: MSL
CCN1/C(=C/C(C)=O)Sc2ccc(OC)cc21 [TG-003] |  |  | −0.1049 | 0.03396 | −0.1032 |  |  |  |  |  | DTIO Corr test [1, 22]: −0.05387; DTIO Corr train [1, 23]: −0.04255; TNBCType train ([2]; subtype (IM, MSL or M) the PRISM compound sensitivity is associated with; training cell set (371 cell lines); 101 gene signature): MSL
Cc1cc(-c2cc(O)ccc2Cl)cc2nnc(Nc3ccc(OCCN4CCCC4)cc3)nc12 [TG-100572] |  |  | 0.01392 | −0.05751 | −0.04088 | 0.03221 | 0.09048 |  |  |  | TNBCType train [2, 10]: MSL
Nc1cccc(-c2cc3c(Oc4cccc(O)c4)ncnc3[nH]2)c1 [TWS-119] |  |  | −0.02666 | 0.00573 | 0.1335 |  |  |  |  |  | DTIO Corr test [1, 22]: −0.03964; DTIO Corr train [1, 23]: −0.1606
CC(C)C(=O)c1ccc(O)c(O)c1 [U-0521] |  |  | −0.0012 | 0.02749 | 0.06256 | −0.01537 | −0.1115 |  |  |  | 
c1ccc(C(NCc2cccnc2)(c2ccccc2)c2ccccc2)cc1 [UCL-2077] |  |  |  |  |  | −0.07511 | −0.2006 | −0.1051 | 0.08781 | 0.1128 | 
CCCN(CCC)[C@@H]1CCc2c(OC)cccc2[C@@H]1C [UH-232-(+)] | −0.1146 | −0.08225 | −0.1006 | 0.08495 | 0.1169 |  |  |  |  |  | 
CN(C)CCN1C(=O)c2cccc3cc(NC(N)=O)cc(c23)C1=O [UNBS-5162] |  |  |  |  |  | 0.09148 | 0.09844 | 0.1623 | −0.2029 | −0.03433 | DTIO Corr test [1, 20]: 0.09148; DTIO Corr train [1, 21]: 0.09844
COc1cc2c(NC3CCN(CC4CCCCC4)CC3)nc(N3CCCN(C(C)C)CC3)nc2cc1OCCCN1CCCCC1 [UNC0631] |  |  | 0.2168 | −0.3256 | −0.09072 | 0.163 | 0.1055 |  |  |  | DTIO Corr test [1, 14]: 0.163; DTIO Corr train [1, 15]: 0.1055
COc1cc2c(NC3CCN(C(C)C)CC3)nc(C3CCCCC3)nc2cc1OCCCN1CCCC1 [UNC0638] | −0.08839 | −0.07586 | −0.1264 | 0.1332 | 0.1697 |  |  |  |  |  | 

— patent publication US20250140406A1, “CLASSIFYING TUMORS AND PREDICTING RESPONSIVENESS” (Oncocyte Corporation, priority 2022, published 2025)
